Data reported in ChEMBL document CHEMBL1909046, “DrugMatrix in vitro pharmacology data”.

Assays:
[1] = molecular target: 5-hydroxytryptamine receptor 2B (Homo sapiens, UniProt P41595); type: cell membranes, CHO-K1, Membrane; conditions: cho-k1; note: in other assays of this panel Not Active means under 50% inhibition at 10 µM
[2] = molecular target: Sodium-dependent dopamine transporter (Homo sapiens, UniProt Q01959); assay: DRUGMATRIX: Dopamine Transporter radioligand binding (ligand: [125I] RTI-55); type: cell membranes, CHO-K1, Membrane; conditions: cho-k1; Not Active = under 50% inhibition at 10 µM
Chain of Sodium-dependent dopamine transporter (Q01959 whole entry): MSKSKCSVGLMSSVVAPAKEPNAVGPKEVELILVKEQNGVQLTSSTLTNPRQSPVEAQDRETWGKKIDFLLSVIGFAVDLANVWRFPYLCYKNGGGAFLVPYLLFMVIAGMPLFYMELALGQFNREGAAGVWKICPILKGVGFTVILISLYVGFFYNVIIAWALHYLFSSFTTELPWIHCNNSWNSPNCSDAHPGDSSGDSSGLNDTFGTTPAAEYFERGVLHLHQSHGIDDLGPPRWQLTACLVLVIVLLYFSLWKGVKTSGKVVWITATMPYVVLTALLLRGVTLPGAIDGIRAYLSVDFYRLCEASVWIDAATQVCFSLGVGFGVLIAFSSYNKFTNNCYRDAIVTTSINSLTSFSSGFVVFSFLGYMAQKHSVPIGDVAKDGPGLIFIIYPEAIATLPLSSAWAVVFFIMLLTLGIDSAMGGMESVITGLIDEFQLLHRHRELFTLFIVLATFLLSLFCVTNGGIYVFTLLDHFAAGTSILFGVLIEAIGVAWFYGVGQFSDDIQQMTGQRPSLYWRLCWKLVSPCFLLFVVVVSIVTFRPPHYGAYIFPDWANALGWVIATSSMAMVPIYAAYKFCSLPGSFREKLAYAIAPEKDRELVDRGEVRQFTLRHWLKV

[3] = DRUGMATRIX: Glutamate, AMPA radioligand binding (ligand: [3H] AMPA); type: cell membranes, Rattus norvegicus, Wistar, Cerebral cortex, Membrane; conditions: Not Active = under 50% inhibition at 10 µM
[4] = DRUGMATRIX: Nicotinic Acetylcholine radioligand binding (ligand: [125I] Epibatidine); type: cell membranes, Membrane; conditions: imr-32; Not Active = under 50% inhibition at 10 µM
Caspase-1 = molecular target: T1, Caspase-1 (Homo sapiens, UniProt P29466); design: species or system Escherichia coli;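 note: Caspase-1 enzyme inhibition assay with a peptide substrate; in other assays of this panel Not Active means under 50% inhibition at 10 µM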
T1 sequence (P29466 whole entry): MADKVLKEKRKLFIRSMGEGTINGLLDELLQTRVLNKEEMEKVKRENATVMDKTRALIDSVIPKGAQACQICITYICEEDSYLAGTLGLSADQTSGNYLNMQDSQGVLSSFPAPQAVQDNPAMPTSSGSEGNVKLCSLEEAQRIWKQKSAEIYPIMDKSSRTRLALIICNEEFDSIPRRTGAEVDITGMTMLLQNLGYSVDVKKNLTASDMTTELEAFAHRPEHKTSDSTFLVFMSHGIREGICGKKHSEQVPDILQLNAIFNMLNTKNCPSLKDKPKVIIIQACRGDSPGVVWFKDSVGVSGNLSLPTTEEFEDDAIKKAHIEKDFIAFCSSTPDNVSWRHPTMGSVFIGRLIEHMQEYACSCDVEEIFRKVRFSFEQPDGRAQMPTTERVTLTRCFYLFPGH

Estrogen receptor beta = Estrogen receptor beta (Homo sapiens, UniProt Q92731); conditions: sf9; note: in other assays of this panel Not Active means under 50% inhibition at 10 µM
Chain of Estrogen receptor beta (Q92731 whole entry): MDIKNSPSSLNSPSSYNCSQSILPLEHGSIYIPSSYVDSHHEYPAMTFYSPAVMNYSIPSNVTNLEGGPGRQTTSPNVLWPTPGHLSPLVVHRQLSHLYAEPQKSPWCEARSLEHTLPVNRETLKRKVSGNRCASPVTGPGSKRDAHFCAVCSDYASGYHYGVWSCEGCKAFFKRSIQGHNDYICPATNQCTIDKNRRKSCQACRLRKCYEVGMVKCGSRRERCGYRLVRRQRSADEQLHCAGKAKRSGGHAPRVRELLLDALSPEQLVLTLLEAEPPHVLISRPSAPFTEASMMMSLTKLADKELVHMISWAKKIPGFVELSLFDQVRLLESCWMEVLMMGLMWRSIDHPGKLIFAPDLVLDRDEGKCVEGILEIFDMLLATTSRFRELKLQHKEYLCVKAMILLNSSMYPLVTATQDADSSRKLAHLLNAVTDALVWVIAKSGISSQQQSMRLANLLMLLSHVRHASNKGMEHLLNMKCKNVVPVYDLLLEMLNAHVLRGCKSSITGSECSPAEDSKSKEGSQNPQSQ

Glucocorticoid receptor = molecular target: T2, Glucocorticoid receptor (Homo sapiens, UniProt P04150); conditions: hela s3; note: in other assays of this panel Not Active means under 50% inhibition at 10 µM
T2 sequence (P04150 whole entry): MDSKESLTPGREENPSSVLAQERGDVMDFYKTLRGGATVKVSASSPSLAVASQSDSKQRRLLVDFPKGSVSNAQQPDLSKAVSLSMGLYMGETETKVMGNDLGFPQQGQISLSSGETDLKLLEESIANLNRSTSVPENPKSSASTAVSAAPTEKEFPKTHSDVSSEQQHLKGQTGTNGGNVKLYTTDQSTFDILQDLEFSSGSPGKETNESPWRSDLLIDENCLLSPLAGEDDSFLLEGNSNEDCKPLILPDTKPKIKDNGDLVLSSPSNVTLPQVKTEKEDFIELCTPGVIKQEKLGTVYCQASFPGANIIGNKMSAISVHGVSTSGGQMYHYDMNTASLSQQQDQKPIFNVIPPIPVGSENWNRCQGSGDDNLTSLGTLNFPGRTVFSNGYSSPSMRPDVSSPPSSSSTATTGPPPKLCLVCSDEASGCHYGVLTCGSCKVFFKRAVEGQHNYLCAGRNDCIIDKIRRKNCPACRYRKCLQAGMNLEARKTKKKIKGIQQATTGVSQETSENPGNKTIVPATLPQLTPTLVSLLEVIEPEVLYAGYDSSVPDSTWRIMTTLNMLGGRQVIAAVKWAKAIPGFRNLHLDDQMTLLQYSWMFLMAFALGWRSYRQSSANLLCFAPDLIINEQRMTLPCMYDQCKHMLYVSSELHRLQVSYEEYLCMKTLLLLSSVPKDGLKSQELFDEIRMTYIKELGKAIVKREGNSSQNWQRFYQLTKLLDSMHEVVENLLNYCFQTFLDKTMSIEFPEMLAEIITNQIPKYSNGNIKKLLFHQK

Chain of 5-hydroxytryptamine receptor 2B (P41595 whole entry): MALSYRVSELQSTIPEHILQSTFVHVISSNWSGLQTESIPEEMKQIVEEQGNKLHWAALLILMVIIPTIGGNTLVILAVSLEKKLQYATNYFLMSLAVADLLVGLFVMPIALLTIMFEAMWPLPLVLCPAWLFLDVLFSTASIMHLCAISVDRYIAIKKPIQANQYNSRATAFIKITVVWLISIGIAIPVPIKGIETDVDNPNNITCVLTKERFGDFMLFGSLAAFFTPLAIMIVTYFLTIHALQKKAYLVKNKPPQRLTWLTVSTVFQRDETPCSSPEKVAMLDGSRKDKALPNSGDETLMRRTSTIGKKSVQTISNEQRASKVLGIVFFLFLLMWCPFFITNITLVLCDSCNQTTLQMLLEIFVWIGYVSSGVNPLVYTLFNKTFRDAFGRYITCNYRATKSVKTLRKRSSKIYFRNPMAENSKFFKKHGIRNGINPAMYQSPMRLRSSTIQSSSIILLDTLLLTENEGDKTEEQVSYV

Which IC50 [1] does the source give for CCCN(CCC)S(=O)(=O)c1ccc(C(=O)O)cc1 [PROBENECID] here?
Its IC50 is “Not Active”.

What about the IC50 [2] of the same compound?
Its IC50 is “Not Active”.

And the IC50 [3]?
Its IC50 is “Not Active”.

And the Ki [3]?
Its Ki is “Not Active”.

What about the IC50 [4] of the same compound?
Its IC50 is “Not Active”.

And the Ki [4]?
The Ki was “Not Active”.

And the IC50 (Caspase-1)?
The IC50 was “Not Active”.

And the IC50 (Estrogen receptor beta)?
Its IC50 is “Not Active”.

What about the IC50 (Glucocorticoid receptor) of the same compound?
Its IC50 is “Not Active”.

With CCCOc1ccc(C(=O)OCCN(CC)CC)cc1N [PROPARACAINE] as the compound, how does the IC50 [1] read?
The IC50 was “Not Active”.

And the IC50 [2]?
The IC50 was “Not Active”.

And the IC50 [3]?
The IC50 was “Not Active”.

What about the Ki [3] of the same compound?
Its Ki is “Not Active”.

What about the IC50 [4] of the same compound?
Its IC50 is “Not Active”.

And the Ki [4]?
The Ki was “Not Active”.

And the IC50 (Caspase-1)?
Its IC50 is “Not Active”.

And the IC50 (Estrogen receptor beta)?
The IC50 was “Not Active”.

And the IC50 (Glucocorticoid receptor)?
The IC50 was “Not Active”.

For C[C@@H]1O[C@@H](O[C@@H]2C=C3CC[C@@H]4[C@H](CC[C@]5(C)[C@@H](c6ccc(=O)oc6)CC[C@]45O)[C@@]3(C)CC2)[C@H](O)[C@H](O)[C@H]1O [PROSCILLARIDIN], which IC50 [1] is on record?
Its IC50 is “Not Active”.

What about the IC50 [2] of the same compound?
Its IC50 is “Not Active”.

And the IC50 [3]?
The IC50 was “Not Active”.

What about the Ki [3] of the same compound?
Its Ki is “Not Active”.

And the IC50 [4]?
The IC50 was “Not Active”.

And the Ki [4]?
The Ki was “Not Active”.

And the IC50 (Caspase-1)?
The IC50 was “Not Active”.

What about the IC50 (Estrogen receptor beta) of the same compound?
The IC50 was “Not Active”.

What about the IC50 (Glucocorticoid receptor) of the same compound?
Its IC50 is “Not Active”.

For Oc1cccc(O)c1O [PYROGALLOL], which IC50 [1] is on record?
Its IC50 is “Not Active”.

What about the IC50 [2] of the same compound?
Its IC50 is “Not Active”.

And the IC50 [3]?
Its IC50 is “Not Active”.

And the Ki [3]?
Its Ki is “Not Active”.

What about the IC50 [4] of the same compound?
Its IC50 is “Not Active”.

And the Ki [4]?
The Ki was “Not Active”.

What about the IC50 (Caspase-1) of the same compound?
Its IC50 is “Not Active”.

What about the IC50 (Estrogen receptor beta) of the same compound?
The IC50 was “Not Active”.

And the IC50 (Glucocorticoid receptor)?
Its IC50 is “Not Active”.

With AURANOFIN as the compound, how does the IC50 [1] read?
The IC50 was “Not Active”.

What about the Ki [1] of the same compound?
The Ki was “Not Active”.

And the IC50 [2]?
The IC50 was “Not Active”.

What about the Ki [2] of the same compound?
Its Ki is “Not Active”.

And the IC50 [3]?
Its IC50 is “Not Active”.

And the Ki [3]?
Its Ki is “Not Active”.

And the IC50 [4]?
Its IC50 is “Not Active”.

What about the Ki [4] of the same compound?
The Ki was “Not Active”.

What about the IC50 (Caspase-1) of the same compound?
The IC50 was “Not Active”.

And the Ki (Caspase-1)?
Its Ki is “Not Active”.

What about the IC50 (Estrogen receptor beta) of the same compound?
The IC50 was “Not Active”.

And the Ki (Estrogen receptor beta)?
Its Ki is “Not Active”.

And the Ki (Glucocorticoid receptor)?
Its Ki is 599 nM.

Which results are given for GADOPENTETATE DIMEGLUMINE?
IC50 [1]: Not Active; Ki [1]: Not Active; IC50 [2]: Not Active; Ki [2]: Not Active; IC50 [3]: Not Active; Ki [3]: Not Active; IC50 [4]: Not Active; Ki [4]: Not Active; IC50 (Caspase-1): Not Active; Ki (Caspase-1): Not Active; IC50 (Estrogen receptor beta): Not Active; Ki (Estrogen receptor beta): Not Active; IC50 (Glucocorticoid receptor): Not Active; Ki (Glucocorticoid receptor): Not Active

With GENTAMICIN as the compound, how does the IC50 [1] read?
Its IC50 is “Not Active”.

And the Ki [1]?
The Ki was “Not Active”.

And the IC50 [2]?
The IC50 was “Not Active”.

And the Ki [2]?
Its Ki is “Not Active”.

And the IC50 [3]?
The IC50 was “Not Active”.

What about the Ki [3] of the same compound?
The Ki was “Not Active”.

And the IC50 [4]?
The IC50 was “Not Active”.

And the Ki [4]?
The Ki was “Not Active”.

What about the IC50 (Caspase-1) of the same compound?
The IC50 was “Not Active”.

What about the Ki (Caspase-1) of the same compound?
The Ki was “Not Active”.

What about the IC50 (Estrogen receptor beta) of the same compound?
Its IC50 is “Not Active”.

What about the Ki (Estrogen receptor beta) of the same compound?
Its Ki is “Not Active”.

And the IC50 (Glucocorticoid receptor)?
Its IC50 is “Not Active”.

And the Ki (Glucocorticoid receptor)?
The Ki was “Not Active”.

For GRAMICIDIN, which IC50 [1] is on record?
The IC50 was “Not Active”.

And the Ki [1]?
The Ki was “Not Active”.

What about the IC50 [2] of the same compound?
The IC50 was “Not Active”.

And the Ki [2]?
Its Ki is “Not Active”.

And the IC50 [3]?
Its IC50 is “Not Active”.

What about the Ki [3] of the same compound?
Its Ki is “Not Active”.

And the IC50 [4]?
Its IC50 is “Not Active”.

And the Ki [4]?
Its Ki is “Not Active”.

What about the IC50 (Caspase-1) of the same compound?
Its IC50 is “Not Active”.

What about the Ki (Caspase-1) of the same compound?
The Ki was “Not Active”.

And the IC50 (Estrogen receptor beta)?
Its IC50 is “Not Active”.

What about the Ki (Estrogen receptor beta) of the same compound?
Its Ki is “Not Active”.

What about the IC50 (Glucocorticoid receptor) of the same compound?
Its IC50 is “Not Active”.

And the Ki (Glucocorticoid receptor)?
Its Ki is “Not Active”.

With NYSTATIN as the compound, how does the IC50 [1] read?
The IC50 was “Not Active”.

What about the Ki [1] of the same compound?
The Ki was “Not Active”.

And the IC50 [2]?
The IC50 was “Not Active”.

What about the Ki [2] of the same compound?
Its Ki is “Not Active”.

And the IC50 [3]?
Its IC50 is “Not Active”.

And the Ki [3]?
Its Ki is “Not Active”.

And the IC50 [4]?
Its IC50 is “Not Active”.

What about the Ki [4] of the same compound?
The Ki was “Not Active”.

What about the IC50 (Caspase-1) of the same compound?
The IC50 was “Not Active”.

What about the Ki (Caspase-1) of the same compound?
The Ki was “Not Active”.

What about the IC50 (Estrogen receptor beta) of the same compound?
Its IC50 is “Not Active”.

And the Ki (Estrogen receptor beta)?
Its Ki is “Not Active”.

And the IC50 (Glucocorticoid receptor)?
The IC50 was “Not Active”.

And the Ki (Glucocorticoid receptor)?
The Ki was “Not Active”.
